# Measurements taken from PMC10689823, “Discovery of a Drug-like, Natural Product-Inspired DCAF11 Ligand Chemotype” (Nature Communications, 2023).
# Columns and labels:
# DCAF11 [1] = target: T1, DCAF11 (Homo sapiens, UniProt Q8TEB1); test: In-gel fluorescence labelling of purified DCAF11; assay type: binding; conditions: purified DCAF11 pretreated with compound 2 for 40 min, then 18 for 40 min
# Description: Purified DCAF11 protein (1 μg, Origene, TP760719) was diluted in PBS buffer that is mixed with compound 2 or BODIPY derivative 18 at the indicated concentration at room temperature. Samples were diluted with 5 × SDS sample loading buffer and heated at 95 °C for 5 min. Proteins were separated using SDS-PAGE and were visualized using the ChemiDoc MP Imaging System (BIO-RAD) at 488 nm and the results were analyzed by Image Lab (BIORAD).
# Hep G2 cells = test: Cell viability assay (CellTiter-Glo) in Hep G2 cells; assay type: cell-based; conditions: Homo sapiens, HepG2, 72 h
# Description: Jurkat cells (3 × 10^3) and Hep G2 cells (3.5 × 10^3) were seeded in 96-well plates in 100 μL culture medium. Cells were treated with compounds dissolved in 50 μl medium at the indicated concentration for 72 h, at the same time, one plate of cells without compounds treatment was used for the cell count at time zero. After adding 40 μl of CellTiter-Glo® reagent (Promega, G7571) to each well for 10 min at room temperature, the luminescence was measured on a Spark® Multimode Microplate Reader (Tecan). The data was analyzed by the GraphPad Prism 9.0.
# PDEδ = PDEδ (Homo sapiens, UniProt O43924); test: PDEδ levels by Western blot in Jurkat cells; assay type: cell-based; set-up: endogenous in cells; host or cells: Jurkat; conditions: 10 μM, 6 h
# DCAF11 [2] = target: T1, DCAF11; test: Affinity-based enrichment (biotin-streptavidin pulldown) in Hep G2 cells overexpressing HA-DCAF11; assay type: binding; set-up: host or cells: Hep G2; conditions: 100 μM compound 2 pretreatment for 1 h
# Description: Hep G2 cells (1 × 10^6 cells/well) were seeded in 6-well plates and incubated for 24 h. On the next day, the cells were transfected with 1 µg pCMV3-N-HA-DCAF11 plasmid (Sino Biological, HG16257-NY) or 1 µg empty vector (pcDNA3.1(+), Thermo Fisher, V79020) and 2.5 µL FuGENE® HD transfection reagent (Promega, E2311) per well. The cells were incubated for 48 h prior to treatment with 100 μM compound 2 for 1 h. […] The cells were washed with ice-cold PBS, then lysed in lysis buffer (150 mM sodium chloride, 1% NP-40, 50 mM TRIS-HCl, pH 8.0 with complete protease inhibitor cocktail (Roche, 11836170001)) for 30 min on ice. After centrifugation at 16,000 x g, the supernatant was transferred into a new tube and the protein concentration was determined using the DC protein assay (BIO-RAD, 5000116).
# The supernatant was discarded and 1 mg of lysate in 500 µL lysis buffer was added to the beads and incubated for 1 h at room temperature with overhead rotation. The beads were washed twice with 500 µL washing buffer (50 mM PIPES (pH 7.4), 50 mM NaCl, 75 mM MgCl2, 5 mM EGTA, 0.1% NP-40, 0.1% Triton X-100, 0.1% Tween20) and twice with PBS for 10 min each at room temperature with overhead rotation. Enriched proteins were eluted by boiling of the beads at 95 °C for 5 min in 20 µL of a supersaturated (25 mM) biotin solution and visualized by Western Blotting as described above.
# BRD4(S)-BFP = target: T2, BRD4(S)-BFP (Homo sapiens, UniProt O60885); test: Flow cytometry-based BRD4 reporter assay (DCAF11 knockout/rescue); assay type: cell-based; conditions: 6 h, 10 at 5 µM, 9 at 1 µM, dBET6 at 0.5 µM, DMSO = 1
# T2 construct: BRD4 short isoform (amino acids 1-719; Twist Bioscience); V5; P2A-mCherry (mCherry split off by P2A self-cleavage) (C, cleaved yes); expressed in transfected cells; host or cells: KBM7 iCas9 cells, lentiviral SFFV-BRD4(S)-mTagBFP-P2A-mCherry
# Description: Stable BRD4(S)-BFP reporter KBM7 iCas9 cell line was generated as previously described. […] Cells were subsequently washed, resuspended in FACS buffer and analyzed on LSRFortessa (BD Biosciences). Flow cytometry data was analyzed in FlowJo (v10.8.1). BFP and mCherry mean fluorescence intensity (MFI) values for were normalized by background subtraction of the respective values from reporter negative KBM7 wild type cells.
# BRD2 = BRD2 (Homo sapiens, UniProt P25440); test: BRD2 levels by Western blot in Hep G2 and MDA-MB-231 cells (incl. RNA interference); assay type: cell-based; set-up: endogenous in cells; host or cells: Hep G2; MDA-MB-231
# Description: Cells were washed with PBS and lysed in lysis buffer (50 mM Tris-HCl, pH 7.4, 150 mM NaCl, 1% Triton X-100, 1% sodium deoxycholate, 0.1% SDS) with complete protease inhibitor cocktail (Roche, 11836170001) for 30 min on ice. For Ramos cells, cell pellets were lysed in lysis buffer (50 mM Tris-HCl, pH 8, 150 mM NaCl, 1% NP-40, 0.5% sodium deoxycholate) with complete protease inhibitor cocktail. After centrifugation at 16,000 x g, the supernatant was transferred into a new tube and the protein concentration was determined by DC protein assay (BIO-RAD, 5000116). Proteins were separated by SDS-PAGE and transferred to a PVDF membrane (Thermo scientific, 0.45 μm, 88518). For PDEδ, BRD2, GAPDH, BRD4, Vinculin and BTK, the membranes were blocked with Intercept® Blocking Buffer (LI-COR Biosciences, 927-70001) at room temperature for 1 h. The primary antibodies for these proteins were diluted with Intercept® Blocking Buffer (1:500 for PDEδ, 1:3000 for Vinculin, and 1:1000 for other proteins) and incubated with the membranes overnight at 4 °C. Membranes were washed with PBS + 0.1% Tween 20 (PBS-T) five times and incubated with secondary antibodies conjugated to IRDye® Infrared Fluorescent Dyes (1:5000, LI-COR Biosciences) at room temperature for 1 h with protection from light. After washing the membrane, signals were visualized using the ChemiDoc MP Imaging System (BIO-RAD Laboratories). For detection of LC3B, BRD3, BLK, DCAF11, DDB1 RBX1, FIP200, V5- and FLAG-Tag the membranes were blocked with 5% milk in PBS-T at room temperature for 1 h. The primary antibodies for these proteins were diluted in 5% milk in PBS-T buffer (1:200 for BRD3, 1:1000 for other proteins) and incubated with the membranes overnight at 4 °C. Membranes were washed with PBS-T five times and incubated with HRP secondary antibodies (1:1500) at room temperature for 1 h. After washing the membrane, protein detection was performed using Western blotting detection reagent (Thermo Scientific, 34095) and the ChemiDoc MP Imaging System (BIO-RAD). Relative band intensities were quantified using Image Lab (BIO-RAD).
# [3] = KBM7 iCas9 BRD4(S)-BFP reporter cells, WT
# [4] = reporter cells, DCAF11 KO + WT cDNA
Compound,competition of DCAF11 labelling by 18 (DCAF11 [1]),GI50 (Hep G2 cells),"PDEδ protein levels, ligands alone or in combination (PDEδ)",competition of DCAF11 enrichment by probe 14 (DCAF11 [2]),norm BRD4 abundance (BRD4(S)-BFP; [3]),norm BRD4 abundance (BRD4(S)-BFP; [4]),"norm BRD4 abundance (BRD4(S)-BFP; reporter cells, DCAF11 KO)",BRD2 depletion in Hep G2 and MDA-MB-231 cells (BRD2; 4 h),"BRD2 degradation after siRNA-mediated depletion of RBX1 (BRD2; MDA-MB-231 cells, RBX1 siRNA 30 nM, 48 h, 3 μM compound 9, 4 h)"
O=C1Nc2ccc(Br)cc2C1=Cc1cc(Br)c(O)c(Br)c1 [Compound 2],binding is prevented,> 30 µM,did not reduce PDEδ protein levels,reduced the enrichment,,,,,
Cc1sc2c(c1C)C(c1ccc(Cl)cc1)=N[C@@H](CC(=O)NCCOCCOCCOCCOCCNC(=O)COc1c(Br)cc(/C=C3\C(=O)Nc4ccc(Br)cc43)cc1Br)c1nnc(C)n1-2 [Compound 9],,,,,0.4125,0.4289,0.7503,BRD2 depletion was also observed,did not induce degradation of BRD2 anymore
Cc1sc2c(c1C)C(c1ccc(Cl)cc1)=NC(CC(=O)NCCOCCOCCOCCOc1c(Br)cc(C=C3C(=O)Nc4ccc(Br)cc43)cc1Br)c1nnc(C)n1-2 (stereo not drawn) [Compound 10],,,,,0.5147,0.5732,0.8082,,
